Experimental data taken from US20150238401A1, “PROPYL-PHENYL-ETHER DERIVATIVE, AND MELANOGENESIS INHIBITOR, SKIN-LIGHTENING AGENT, ANTIMICROBIAL AGENT AND COSMETIC CONTAINING SAID PROPYL-PHENYL-ETHER DERIVATIVE” (SEIWA KASEI COMPANY, LIMITED, priority 2012, published 2015).

Assays:
[1] = tested on: Escherichia coli, Pseudomonas aeruginosa, Staphylococcus aureus and Candida albicans; test: Antimicrobial test on SCD agar medium containing the sample; assay type: cell-based; conditions: 12 specimens per sample (3.0%, 1.0%, 0.5% x four microorganisms), 30° C., 7 days, visual
Protocol: The propyl-phenyl-ether derivative of the present invention was evaluated for an antimicrobial test using four bacteria: Escherichia coli, Pseudomonas aeruginosa, Staphylococcus aureus and Candida albicans (use of ATCC strain) according to the following procedure. As a comparative compound, 1,2-pentandiol was used.
(1) Into a test tube containing 1.0 g of Tween 80 (polyoxyethylene sorbitan monooleate) added, 0.3 g, 0.1 g or 0.05 g of various samples were added, and SCD (Soybean Casein Digest) agar medium was added each in an amount of about 10 mL so as to give final concentrations of 3.0%, 1.0% and 0.5%, and stirred thoroughly with Vortex. Thereafter, the sample-containing medium was sterilized by high-pressure steam sterilization (for 15 minutes at 121° C.), cooled down to 45° C., the medium was poured gently onto a petri dish sterilized previously, and spread over the whole petri dish having signage of 4-section on the outer surface of the bottom, and allowed to stand still to solidify the medium. (2) Thereafter, various bacterium solutions of which number of bacteria had been previously regulated to 1.0×10^4 to 5.0×10^4 cfu/mL were inoculated on the sample-containing medium prepared in (1), each one bacterium for one section of the petri dish, each in an amount of 10 μL on four places (three concentrations are applied to four kinds of bacteria for each sample, that is, 12 specimens per sample). (3) These were cultured in a 30° C. thermostat bath for 7 days. (4) The presence or absence of bacteria was determined visually.
The results are classified by the following criteria and shown in Table 4. • The number of specimens confirming bacteria was 10 or more: Δ • The number of specimens confirming bacteria was 6 to 9: ◯ • The number of specimens confirming bacteria was 5 or less: ⊚

[2] = tested on: B16 melanoma 4A5 cell; test: Melanogenesis inhibiting test (theophylline-induced melanine production); assay type: cell-based; conditions: B16 mouse melanoma 4A5, theophylline 1.0 mmol/L, 3 days culture, N=4; for IC40: B16 melanoma 4A5, 72 h, read-out: Judgment: sample concentration showing the melanogenesis inhibiting ratio of 40% or more
Protocol: As a test for a skin-lightening effect, evaluation of the action of B16 melanoma 4A5 cell on theophylline-induced melanine production was carried out on propyl-phenyl-ether derivatives of the present invention, according to the following procedure. (1) B16 mouse melanoma 4A5 strain was sowed onto a 48-well plate at a cell density of 8.0×10^3 cells/well. (2) Culturing was performed for 24 hours with Dulbecco's Modified Eagle's medium (manufactured by SIGMA. Hereinafter, abbreviated as D-MEM) containing 10% fetal bovine serum (manufactured by Nichirei Biosciences Inc.). […] (3) After culturing for 3 days in the co-existence of a sample, the medium was removed using an aspirator. Then, after distilled water was added, cells were broken by an ultrasonic wave. (4) Thereafter, the amount of protein was determined using BCA protein assay kit (manufactured by Thermo Fisher Scientific Inc.), and the produced amount of melanine was measured by an alkali solubilizing method described below. [Alkali Solubilizing Method] To the cell-destructed solution was added sodium hydroxide so as to give a final concentration of 1 mol/L and the mixture was dissolved by heating (60° C., 30 minutes), then, the absorbance at 450 nm was measured using a micro plate reader. The melanine amount was calculated from a calibration curve made using synthetic melanine (SIGMA) as a standard. The melanine amount per unit protein was calculated by dividing the melanine amount by the protein amount. (5) The melanine production suppressing rate was calculated according to the following formula. Melanine production suppressing rate (%)=[1−(A−B)/(C−B)]×100 [wherein, A represents the melanine amount per unit protein (g/g) in adding a sample, B represents the melanine amount per unit protein (g/g) in the normal group, and C represents the melanine amount per unit protein (g/g) in the control group.] In the above, Normal group is a case of theophylline (−; no addition) and sample (−; no addition), and Control group is a case of theophylline (+; addition) and sample (−; no addition). (6) Determination of Skin-Lightening Effect The amount of a sample required for adjusting the melanogenesis inhibiting ratio to 40% or more was measured, and the effect was evaluated by the following criteria based on the measured amount. The measurement was conducted at N=4 (4 wells per sample). The skin-lightening effect is expressed as described below based on the sample concentration showing the melanogenesis inhibiting ratio of 40% or more. The measurement was conducted at N=4.

[3] = Stability test (coloration on storage); assay type: physicochemical; conditions: for Coloration, 2 weeks after / Coloration, 4 weeks after: 1% in 50% ethanol, pH 6.0 to 8.0, stored at 50° C., total points of 10 panelists
Protocol: Aascorbic acid, kojic acid, hydroquinone and arbutin which are known skin-lightening agents were used as comparative compounds. […] The solutions were placed in 50 mL screw tubes and closely sealed, and stored at 50° C. for 4 weeks. The degrees of coloration of the solution directly after preparation of the test sample, 2 weeks after storage and 4 weeks after storage were evaluated by 10 panelists according to the following criteria. 3: almost no change as compared with directly after preparation 2: colored as compared with directly after preparation 1: intensely colored as compared with directly after preparation The evaluation results of coloration were classified as described below.

[4] = tested on: Propionibacterium acnes (JCM6415); test: Anti-acne test (growth in GAM bouillon medium, OD620); assay type: cell-based; conditions: sample final concentration 0.1%, 37° C., anaerobic, 48 hours
Protocol: Propionibacterium acnes (JCM6415: ATCC strain) was transplanted to GAM bouillon medium (manufactured by Nissui Pharmaceutical Co., Ltd.), and cultured at 37° C. under anaerobic condition for 24 hours. Thereafter, it was diluted with GAM bouillon medium so that the final bacterium concentration was OD620=0.1, and this was used as a test bacterium solution. In examples, the propyl-phenyl-ether derivative was weighed so that the final concentration was 0.1%, dissolved in GAM bouillon medium, then, filter-sterilization was performed. The resultant solution was used as a sample solution. The test bacterium solution was added in an amount of 30 μL and the sample solution was added in an amount of 120 μL to a 96-well microplate (manufactured by Sumitomo Bakelite Co., Ltd.), then, immediately, the micro plate and AnaeroPack-KENKI (manufactured by Mitsubishi Gas Chemical Co., Inc.) were placed into an anaerobic jar (manufactured by Mitsubishi Gas Chemical Co., Inc.), and culture was carried out at 37° C. under anaerobic condition for 48 hours. Thereafter, OD620 was measured by a microplate reader. The same test was conducted using methylparaben, phenoxyethanol and sodium ascorbate as comparative compounds.
The results are classified by the following criteria and shown in Table 5-Table 7. • Δ: OD620 is 0.6 or more • ◯: OD620 is 0.3-0.6 • ⊚: OD620 is 0.3 or less

Structure (SMILES)	Judgment: number of specimens confirming bacteria [1]	IC40 [2]	Coloration, 2 weeks after [3]	Coloration, 4 weeks after ([3]; 4 weeks)	Judgment: sample concentration showing the melanogenesis inhibiting ratio of 40% or more [2]	Judgment: OD620 after culture [4]	Stability in terms of coloration (in words) ([3]; summary of Table 8, 50° C., 4 weeks)
CCCC(O)CO (stereo not shown) [1,2-pentandiol, reference compound]	Δ (The number of specimens confirming bacteria was 10 or more: Δ)						
OC[C@H]1O[C@@H](Oc2ccc(O)cc2)[C@H](O)[C@@H](O)[C@@H]1O [Arbutin]		30 to 100 µM	◯ (◯: total points of 10 panelists is 22 or more)	Δ (Δ: total points of 10 panelists is 15 to 21)			
O=C1O[C@H]([C@@H](O)CO)C(O)=C1O [Ascorbic acid]		≥ 300 µM	X (X: total points of 10 panelists is 14 or less)	X (X: total points of 10 panelists is 14 or less)			
CC(C)(C)c1ccc(OCC(O)CO)cc1 (stereo not shown) [Example 1, 1,2-di-hydroxy-3-(4′-tert-butylphenoxy)propyl]	⊚ (The number of specimens confirming bacteria was 5 or less: ⊚)		◯ (◯: total points of 10 panelists is 22 or more)	◯ (◯: total points of 10 panelists is 22 or more)	⊚⊚ (≦30 μmol/L: ⊚⊚)	⊚⊚	excellent in stability in terms of coloration
CCOCC(O)COc1ccc(C(C)(C)C)cc1 (stereo not shown) [Example 3 (1-O-ethyl-2-hydroxy-3-(4′-tert-butylphenoxy)propy] [1-O-ethyl-2-hydroxy-3-(4′-tert-butylphenoxy)propyl]	⊚ (The number of specimens confirming bacteria was 5 or less: ⊚)				⊚⊚ (≦30 μmol/L: ⊚⊚)	◯ (◯: OD620 is 0.3-0.6)	
CCC(C)c1ccc(OCC(O)CO)cc1 (stereo not shown) [Example 5, 1,2-di-hydroxy-3-(4′-sec-butylphenoxy)propyl]	⊚ (The number of specimens confirming bacteria was 5 or less: ⊚)				⊚ (30 to 100 μmol/L: ⊚)	◯ (◯: OD620 is 0.3-0.6)	
CCC(C)c1ccccc1OCC(O)CO (stereo not shown) [Example 6, 1,2-di-hydroxy-3-(2′-sec-butylphenoxy)propyl]	◯ (The number of specimens confirming bacteria was 6 to 9: ◯)	100 to 300 µM				◯ (◯: OD620 is 0.3-0.6)	
CCCCCCCC(=O)OCC(COc1ccc(C(C)(C)C)cc1)OC(=O)CCCCCCC (stereo not shown) [Example 7, 1,2-di-octanoyl-3-(4′-tert-butylphenoxy) propyl]	◯ (The number of specimens confirming bacteria was 6 to 9: ◯)				⊚⊚ (≦30 μmol/L: ⊚⊚)	◯ (◯: OD620 is 0.3-0.6)	
Oc1ccc(O)cc1 [Hydroquinone]		≥ 300 µM	X (X: total points of 10 panelists is 14 or less)	X (X: total points of 10 panelists is 14 or less)			
O=c1cc(CO)occ1O [Kojic acid]		≥ 300 µM	◯ (◯: total points of 10 panelists is 22 or more)	Δ (Δ: total points of 10 panelists is 15 to 21)			
